In paper PMC11583597, “Brain uptake pharmacokinetics of albiglutide, dulaglutide, tirzepatide, and DA5-CH in the search for new treatments of Alzheimer’s and Parkinson’s diseases” (Tissue Barriers, 2023):
Read-outs that look alike come from different tables or passages of the source. Marks after values point to notes of the source that are not given here.

Assays:
[1] = Octanol/buffer partition coefficient (lipid solubility); assay type: physicochemical
Protocol: We measured the lipid solubility of the IRAs, using octanol and PB. Briefly, 1 × 10^5 counts per minute (cpm) of each ^125I/^14C-IRA were added to triplicate tubes containing equal volumes PB and octanol (Sigma-Aldrich). This solution was vigorously mixed for 1 min and centrifuged at 5500 ×g for 10 min to separate the two phases. Aliquots of 100 μl were taken in duplicate from each phase, and total radioactivity was counted in a gamma counter (Wizard2, Perkin-Elmer) or beta counter (TriCarb 3110TR, Perkin-Elmer). The ratio of the cpm in the octanol phase to the cpm in the buffer phase equates to the mean partition coefficient (Pcoeff) and indicates lipophilicity. The log value for the coefficient can be either greater than unity, indicative of a lipophilic compound, or less than unity, indicative of a hydrophilic compound.

[2] = In vivo stability of 125I/14C-IRAs in blood/serum (acid precipitation); design: species or system male CD-1 mice; details: mouse, iv
Protocol: (§1) We measured the stability of the radiolabeled IRAs in brain and blood. Following anesthetization, arterial blood and whole brain were taken at two time points (10 or 60 min) after iv injection of 3 × 10^5 cpm-1×10^6 cpm of ^125I/^14C-IRA in 0.2 ml of BSA/LR. The blood samples were allowed to clot, centrifuged at 3200 ×g for 10 min, and 50 μl of the separated serum was added to 250 μl of BSA-LR. Samples were combined with equal volume 30% TCA (300 μl), mixed, and then centrifuged for 10 min at 5400 ×g. Brains were homogenized in 800 μl of BSA-LR with a bead beater for 30 sec at 4800 rpm twice. Following centrifugation at 5400 ×g for 15 min, a portion of the resulting supernatant was added to an equal volume of 30% TCA, mixed, and then centrifuged at 5400 ×g for 10 min. The radioactivity in the resulting supernatant and pellet (Sup and Pel fractions) for serum and brain was calculated separately, and the percent of radioactivity in the precipitate was calculated using the following equation:(1) %AcidPrecip=100×Pel/Sup+Pel
(§2) To correct for degradation that might have occurred during the processing, ^125I/^14C-IRA was added to non-radioactive arterial whole blood or to whole brain and processed as above. The biological samples were corrected for degradation during processing by dividing their values by those for processing control (Pcon) values and multiplying by 100. This can sometimes result in a value greater than 100%.
(§3) Immediately after counting the radioactivity, the blood and brains from the 10 min and 6 h time points were processed as described in Section 2.5 for in vivo stability. For further comparison, data from the 1 h time point were taken from the original pharmacokinetic uptake study. The ^125I-IRA brain % acid precipitation (%AP) was divided by the ^125I-IRA serum %AP at each time point to calculate the %AP B/S ratio. This value was multiplied by the B/S ratio for each ^125I-IRA to correct for degradation over the 10 min, 1 h, or 6 h time periods. Corrected AP B/S ratios were then corrected for vascular space by subtracting the ^99mTc-Alb B/S ratio within each mouse for the 10 min and 6 h time points (AP corrected delta B/S ratio). For the 1 h time point, the average ^99mTc-Alb B/S ratio (10.03 μl/g) at 10 min across all ^125I-IRAs was used for correction. The AP corrected delta B/S ratio for each ^125I-IRA was then multiplied by the %Inj/ml within each mouse to calculate the AP corrected delta %Inj/g.

[3] = Brain influx and initial volume of distribution (multiple-time regression analysis); design: species or system male CD-1 mice; details: mouse, in vivo; for Blood to Brain Unidirectional Influx Rate (Ki): iv
Protocol: (§4) Following anesthetization, the jugular vein and right carotid artery were exposed. Mice were given a jugular vein injection of 0.2 ml BSA-LR containing 3 × 10^5 cpm-1×10^6 cpm of an ^125I/^14C-labeled IRA and 5 × 10^5 cpm of ^99mTc-Alb. Blood samples were collected from the carotid artery at various time points from 1 to 60 min after iv injection (see Figure 1). Mice were then decapitated, and their brains were removed and weighed. After clotting, the arterial blood was centrifuged at 3200 ×g for 10 min. Levels of radioactivity in serum (50 μl) and brain were measured in a gamma counter for ^125I and ^99mTc for 3 min. After ^99mTc decay, ^14C-DA5-CH samples were solubilized with Solvable (Sigma), transferred to scintillation vials containing Ecoscint (National Diagnostics) and ^14C was measured in a beta counter. Sample injection checks were taken throughout the course of the study to calculate the mean injected cpm/mouse. To determine the rate of ^125I/^14C-IRA clearance from the serum, the results were expressed as the percentage of an injected dose in each ml of serum (%Inj/ml), which was calculated by dividing the cpm in a ml of serum (cpm/ml serum) by the cpm injected into the mouse (cpm/Inj):
To calculate the blood-to-brain unidirectional influx constant (Ki), multiple-time regression analysis was used as first described by Patlak, Blasberg, and Fenstermacher.[67],[68] The brain/serum (B/S) ratios (μl/g) of the ^125I/^14C-IRA in each gram of brain were calculated from the data in Section 2.6 and plotted against their respective exposure times as previously applied by Rhea et al. 2018.[69] Exposure time differs from clock time in that exposure time corrects for clearance of the ^125I/^14C-IRA from blood and thus, better represents the amount of ^125I/^14C-IRA available for BBB transport at any given time. Delta B/S ratios were calculated by subtracting the vascular space as measured by the B/S ratio for ^99mTc-Alb from the B/S ratio for the respective ^125I/^14C-IRA. Thus, delta B/S ratios represent material that has been taken up by or has crossed the BBB. The slope of the linear portion of the relation between delta B/S ratios and exposure time defines Ki (μl/g-min) and is reported with its error term. This represents Model 1 for DA5-CH. The y-intercept of this linear portion of the relation defines Vi, (μl/g), the initial volume of distribution in brain at t = 0, which is the functional volume per unit brain mass of a soluble compound that exchanges rapidly and reversibly with plasma.[68] Vi consists of the vascular space (Vv) and any residual space after accounting for Vv and usually represents vascular binding (Vr). Since we correct each ^125I/^14C-IRA delta B/S for vascular space, our y-intercept values likely represent vascular binding. For DA5-CH, there appeared to be rapid, early transport that would indicate a Vr equal to 0. Therefore, using Vr equal to 0, we calculated an estimate of this new Ki and refer to it throughout the manuscript as Model 2.

[4] = mouse, in vivo, iv
Protocol: The capillary depletion method was used to separate cerebral capillaries from brain parenchyma. Anesthetized mice received an iv injection of 3 × 10^5-1×10^6 cpm of an ^125I-IRA with 5 × 10^5 cpm ^99mTc-Alb BSA-LR and 15 min later, blood and brains were collected. Whole brains were homogenized with physiological buffer (10 mM HEPES, 141 mM NaCl, 4 mM KCl, 2.8 mM CaCl2, 1 mM MgSO4, 1 mM NaH2PO4, and 10 mM D-glucose adjusted to pH 7.4) using two different sized glass dounce homogenizers, mixed with 26% dextran (Sigma-Aldrich), and centrifuged at 5400 ×g for 15 min at 4°C.[69] The pellet, containing the capillaries, and the supernatant, containing the brain parenchymal/interstitial fluid space, were carefully separated. The ratio of ^125I-IRA radioactivity in the supernatant (parenchyma) was corrected for vascular space by subtracting the B/S ratio of ^99mTc-Alb in the supernatant. The corrected parenchyma/serum and capillary/serum ratios (μl/g) were calculated as (cpm/g tissue)/(cpm/μl) serum.

[5] = design: species or system male CD-1 mice; details: mouse, in vivo, iv
Protocol: Anesthetized mice were co-injected iv with 3 × 10^5 cpm-1×10^6 cpm ^125I/^14C-IRA and 5 × 10^5 cpm of ^99mTc-Alb in 0.2 ml BSA-LR with or without 1 μg of the non-radioactive IRA. Fifteen minutes after iv injection, blood was collected from the right carotid artery, and the whole brain was removed and weighed. Samples were counted for radioactivity. Results were expressed as delta B/S ratios in units of μl/g.

[6] = In vivo stability of 125I/14C-IRAs in brain (acid precipitation); design: species or system male CD-1 mice; details: mouse, iv
Protocol: as §1, §2, §3

[7] = design: species or system male CD-1 mice; details: mouse, in vivo, iv; remark: listed apart in the source
Protocol: as §4
(2) %Inj/ml=100×cpm/mlserum/meancpm/Inj
The log(%Inj/ml) was plotted against time to calculate the rate of clearance from the serum. To calculate the half-time clearance in minutes, the inverse slope […] of the curve for each IRA was multiplied by 0.301 (log10[2]). The blood and brain cpm data were used for the measurement of brain influx and initial volume of distribution in brain as described in Section 2.7.

[8] = design: species or system male CD-1 mice; details: mouse, in vivo, iv; remark: listed apart in the source
From the text: This value is then multiplied by the %Inj/ml of each ^125I/^14C-IRA at each time point. After plotting the %Inj/g at each time point for each IRA, we calculated the area under the curve (AUC) to better identify the amount of brain exposure to each IRA over the entire time course.

[9] = mouse, in vivo, iv; cited from earlier work
[10] = mouse, in vivo; cited from earlier work
Protocol: The rank order of IRAs showing significant brain uptake 1 h after iv injection with respect to AUCs is similar, but not identical to the rank order of their Ki’s (see Figures 5b and 3b). Less similar is the rank order of IRAs for uptake into brain parenchyma defined as the percent reaching the brain that was in its parenchyma vs. its capillaries. The rank order of parenchymal uptake was specifically DA4-JC (89.7%) = albiglutide (BAF) (89.4%) > DA3-CH (86%) > exenatide (84.2%) > Peptide 17 (73.2%) > lixisenatide (66.8%) > dulaglutide (BAF) (61.8%) > DA5-CH (57.6%) > Peptide 21 (43.6%) > liraglu ...

[11] = mouse, in vivo, iv; cited from earlier work; remark: listed apart in the source
From the text: The unidirectional blood-to-brain influx rate (Ki) calculated from Figure 2c for all four IRAs tested is graphed with previously calculated Ki’s for other IRAs[50] in Figure 3 by rank.

Row | Substance | Lipid Solubility Partition Coefficient ([1]; pH 7.5) | Log Partition Coefficient (Log P) ([1]; pH 7.5) | Percentage of labeled IRA intact, Serum, 10 min [2] [%] | Percentage of labeled IRA intact, Serum, 60 min [2] | Blood to Brain Unidirectional Influx Rate (Ki) [3] [µL/g/min] | Percent in Parenchyma vs. Capillaries [4] [%] | Whole Brain delta brain/serum ratio, Without unlabeled IRA [5] [µL/g] | Percentage of labeled IRA intact, Whole Brain, 10 min [6] [%] | Percentage of labeled IRA intact, Whole Brain, 60 min [6] [%] | Half-Time Serum Clearance (t1/2) [7] [min] | Percent of injected dose taken up per gram brain (%Inj/g), 10 min [8] [%Inj/g] | Percent of injected dose taken up per gram brain (%Inj/g), 60 min [8] [%Inj/g] | Percent of injected dose taken up per gram brain (%Inj/g), 15 min [8] [%Inj/g] | Log Partition Coefficient (Log P) ([1]; shake-flask octanol / sodium phosphate buffer pH 7.5 (PB), radiolabelled IRA, gamma or beta counting, mean ± SE, triplicate tubes) | Probable Ki of DA5-CH [3] [µL/g/min] | Probable Vr of DA5-CH [3] [µL/g] | %Inj/g by 60 min [9] [%Inj/g] | Percent reaching the brain that was in parenchyma vs. capillaries [10] [%] | Blood to Brain Unidirectional Influx Rate (Ki) [11] [µL/g/min]
1 | HGEGTFTSDVSSYLEEQAAKEFIAWLVKGGG [Dulaglutide (BAF)] | 0.0102 ± 0.0007 | -1.991 ± 0.0287 | 84.67 ± 0.8 | 39.1 ± 1.4^a % | 1.095 ± 0.072 | 61.8 | 17.86 ± 0.99 | 58.42 ± 0.3 | 37.47 ± 4.1 | 6.02 | 0.20 | 0.33 |  |  |  |  |  |  | 
2 | HGEGTFTSDVSSYLEGQAAKEFIAWLVKGR [Albiglutide (BAF)] | 0.0132 ± 0.0040 | -1.916 ± 0.121 | 53.96 ± 0.4 | 20.71 ± 1.3^a % | 1.379 ± 0.086 | 89.4 | 39.3 ± 1.50 | 43.35 ± 2.9 | 40.9 ± 9.3 | 6.14 |  |  | 0.36 |  |  |  |  |  | 
3 | YXEGTFTSDYSIYLDKQAAXEFVNWLLAGGPSSGAPPPSKRRQRRKKRGY-NH2 [DA5-CH, Experimental balanced GIPR/GLP-1R dual agonist; Peptide 18 of Finan et al. with extension; custom synthesized by AnaSpec] |  |  | 83.83 ± 4.9 | 49.35 ± 2.5^a % | 0.242 ± 0.128 | 57.6 | 26.25 ± 8.07 | 79.7 ± 12.9 | 77.61 ± 22.3 | 2.03 |  |  |  | -2.183 ± 0.0281 | 0.24 to 2.5 | 0 to 11.2 |  |  | 
4 | exenatide: FDA-approved IRA tested in the earlier study (ref 50) |  |  |  |  |  |  |  |  |  |  |  |  |  |  |  |  | 0.56 | 84.2 | 0.4231
